Tests used:
Type in all cases: cell-based, human
MAT2A [1] = assay: MAT2A mRNA levels by real-time PCR in RKO cells; details: for MAT2A expression / MAT2A mRNA levels after growth factor: RKO cells; for MAT2A mRNA levels after growth factor: growth factor 100 ng/ml
Method: (§1) HT-29 and RKO cells were obtained from the Cell Culture Core of the USC Liver Disease Research Center and grown according to instructions provided by the American Type Culture Collection (ATCC, Rockville, Md.). Prior to treatment with growth factors, SAMe or MTA, medium was changed to 0.1% FBS overnight.
(§2) RNA interference (RNAi) experiments were performed using Lipofectamine RNAiMax (Invitrogen) according to the manufacturer's instructions. Small interfering RNA (siRNA) oligonucleotides for MAT2A and scrambled siRNA were synthesized by the USC Norris Comprehensive Cancer Center Microchemical Core Laboratory, and annealed to form duplexes. Stealth RNAi for MAT2A and Stealth RNAi negative control duplexes were synthesized by Invitrogen (Carlsbad, Calif.). The following siRNA sequences were used: si-MAT2A #1, 5′-[…]-3′ (sense) and 5′-[…]-3′ (antisense); si-control with scrambled sequence (negative control siRNA having no perfect matches to known human genes), 5′-[…]dTdT-3′ (sense) and 5% […]dTdT-3′ (antisense); stealth RNAi-MAT2A #5, 5′-[…]-3′ (sense) and 5′-[…]-3′ (antisense). Transfection was allowed to proceed 72 hours before collection for different assays.
(§3) Total RNA was isolated by the EZgeno total RNA isolation kit (Genemega, San Giego, Calif.), and subjected to reverse transcription (RT) by using M-MLV Reverse transcriptase (Invitrogen). 2 μl of RT product was subjected to quantitative real-time PCR analysis. The primers and TaqMan probes for MAT2A, MAT2β and Universal PCR Master Mix were purchased from ABI (Foster City, Calif.). Hypoxanthine phosphoribosyl-transferase 1 (HPRT1) and ubiquitin C (UBC) were used as housekeeping genes (48). The thermal profile consisted of 1 cycle at 95° C. for 15 minutes followed by 40 cycles at 95° C. for 15 seconds and at 60° C. for 1 minute. The expression of MAT2A and MAT2β was checked by normalizing the Ct of MAT2A and MAT2β to that of the control housekeeping gene (HPRT1 or UBC) (49). The delta Ct obtained was used to find the relative expression of MAT genes according to the formula: Relative expression=2·^ΔCt, where ΔCt=ΔCt of MAT genes in colon cancer or treated cells—ΔCt of MAT genes in normal colon or control cells.

RKO cells = assay: Apoptosis in RKO cells (HOECHST staining, Annexin V)
Method: Apoptosis was assessed by HOECHST staining (34). Briefly, RKO cells were grown on coverslips and treated with RNAi#1 for 24 hrs and cells were fixed with paraformaldehyde and stained with 8 μg/ml HOECHST 33258 dye for 30 min. Cells with bright, fragmented, condensed nuclei were identified as apoptotic cells using the Nikon Eclipse TE300 fluorescent microscope. At least 5 random fields (at ×300) were counted.
In these experiments the total treatment duration was limited to 16 hrs to avoid the apoptotic effect. […] Apoptosis was measured by Hoechst staining or Annexin V and propidium iodide staining on flow cytometry.

MAT2A [2] = assay: MAT2A mRNA levels by real-time PCR in HT-29 cells; details: for MAT2A mRNA levels after growth factor: growth factor 100 ng/ml
Method: as §1
as §2, with “Transfection was allowed to proceed 72 hours before collection for different assays.” left out
as §3

HT-29 cells [3] = assay: Cellular SAMe and MTA levels in HT-29 cells; details: mitogen 100 ng/ml
Method: as §1
(§4) Cellular SAMe and MTA levels were measured (51) and polyamine levels were determined (52).

HT-29 cells [4] = assay: Polyamine levels in HT-29 cells; details: 6 hrs, mitogen 100 ng/ml
Method: as §1, §4

[5] = system: ornithine decarboxylase (ODC); assay: ODC expression by real-time PCR in HT-29 cells; details: 6 hrs, mitogen 100 ng/ml
SPD syn = SPD syn expression by real-time PCR in HT-29 cells; details: 6 hrs, mitogen 100 ng/ml
[6] = system: spermine synthase (SPM syn); assay: SPM syn expression by real-time PCR in HT-29 cells; details: 6 hrs, mitogen 100 ng/ml
HT-29 cells [7] = assay: Cell growth by MTT assay in HT-29 cells
Method: Cell growth was measured by the cell growth determination kit MTT from Sigma (St. Louis, Mo.). The MTT assay measures the cell proliferation rate and reduction in cell viability. HT-29 or RKO cells (1×10^4/well) were plated in 96-well plates and treated with growth factors (all 100 ng/ml), SAMe (0.5 to 5 mM), MTA (0.5 to 1 mM), alone or in combination for 16 hrs in serum-free medium. To determine the effect of MAT2A RNAi on mitogen-induced changes in MTT, cells were first treated with RNAi for 48 hrs followed by mitogen treatment for another 24 hrs.

| Substance | MAT2A mRNA levels after growth factor (MAT2A [2]; HT-29 cells) | MAT2A mRNA levels after growth factor (MAT2A [1]) | MTA level (HT-29 cells [3]; 6 hrs) [nmol/mg protein] | MTA level (HT-29 cells [3]; 16 hrs) [nmol/mg protein] | SAMe level (HT-29 cells [3]; 16 hrs) [nmol/mg protein] | Putrescine (HT-29 cells [4]) [nmol/mg protein] | Spermidine (HT-29 cells [4]) [nmol/mg protein] | Spermine (HT-29 cells [4]) [nmol/mg protein] | ODC expression [5] | SPD syn expression (SPD syn) | SPM syn expression [6] | also measured |
| --- | --- | --- | --- | --- | --- | --- | --- | --- | --- | --- | --- | --- |
| RNAi#1: siRNA against MAT2A, sense 5′-ACACAUUGGAUAUGAUGAUTT-3′ (antisense AUCAUCAUAUCCAAUGUGUTT; chemistry not given here) [reference compound] |  |  |  |  |  |  |  |  |  |  |  | lowering of MAT2A expression (MAT2A [1]): 90%; MAT2A expression (MAT2A [1]; 24 hrs): 25 % of scrambled control; MAT2A expression (MAT2A [1]; 48 hrs): 9 % of scrambled control; apoptosis (RKO cells; 24 hrs of RNAi treatment): significant increase in apoptosis; apoptosis (RKO cells; 48 hrs of RNAi treatment): more pronounced |
| EGF: Epidermal growth factor, mitogen | doubled | doubled | 0.054 ± 0.001 | 0.061 ± 0.010 | 0.63 ± 0.06 | 0.32 ± 0.01 | 2.19 ± 0.23 | 12.55 ± 2.04 | 1.5 ± 0.07 fold of control | 1.7 ± 0.08 fold of control | 1.1 ± 0.02 fold of control | SAMe level (HT-29 cells [3]; 6 hrs): 0.54 ± 0.04 nmol/mg protein |
| RNAi#5: stealth RNAi against MAT2A, sense 5′-CCACCUACAGCCAAGUGGCAGAUUU-3′ (antisense AAAUCUGCCACUUGGCUGUAGGUGG; chemistry not given here) [reference compound] |  |  |  |  |  |  |  |  |  |  |  | MAT2A mRNA level (MAT2A [2]; HT-29 cells, RNAi 48 hrs): 50 % of control; lowering of MAT2A expression (MAT2A [2]; at 72 hrs): 50%; lowering of MTT value (HT-29 cells [7]; HT-29 or RKO cells, RNAi 48 hrs then another 24 hrs): about 30%; mitogenic effect of leptin, IGF-1 and EGF (HT-29 cells [7]; RNAi 48 hrs, then growth factors 24 hrs): blocked the ability of leptin, IGF-1 and EGF to fully exert their mitogenic effect; apoptosis (RKO cells; after 24 hrs): No apoptosis was detected |
| IGF-1: insulin-like growth factor-1, mitogen | doubled | doubled | 0.054 ± 0.003 | 0.087 ± 0.025 | 1.03 ± 0.03 | 0.22 ± 0.02 | 2.82 ± 0.09 | 12.55 ± 2.50 | 1.5 ± 0.08 fold of control | 2.2 ± 0.20 fold of control | 1.1 ± 0.03 fold of control |  |
